Results from US20090192158A1, “Methods for Treating or Preventing Neoplasias” (priority 2006, published 2009).

Columns and labels:
[1] = test system: human colon tumor cell line; details: cited from earlier work
human mPGES-1 = target: T1, human mPGES-1 (Homo sapiens, UniProt O14684); assay: Microsomal prostaglandin E synthase assay; format: biochemical; details: microsomes of CHO-K1 cells transfected with human mPGES-1; PGE2 by EIA; average of at least n=3; read-out: h-CHO (nM); potency expressed as IC50
T1 construct: made in house; host or cells: CHO-K1 cells, transient transfection; microsomal fraction
T1 sequence (O14684 1-152): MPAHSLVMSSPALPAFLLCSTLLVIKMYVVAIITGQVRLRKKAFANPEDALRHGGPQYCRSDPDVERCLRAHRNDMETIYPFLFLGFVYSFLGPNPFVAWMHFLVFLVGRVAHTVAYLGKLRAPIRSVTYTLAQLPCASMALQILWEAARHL
Protocol: Compounds are tested as inhibitors of prostaglandin E synthase activity in microsomal prostaglandin E synthases, whole cell and in vivo assays. These assays measure prostaglandin E2 (PGE2) synthesis using either Enzymatic Immunoassay (EIA) or mass spectrometry. Cells used for microsomal preparation are CHO-K1 cells transiently transfected with plasmids encoding the human mPGES-1 cDNA. Cells used for cell-based experiments are human A549 (which express human mPGES-1). Guinea pigs are used to test the activity of selected compounds in vivo. In all these assays, 100% activity is defined as the PGE2 production in vehicle-treated samples.
Prostaglandin E synthase microsomal fractions are prepared from CHO-K1 cells transiently transfected with plasmid encoding the human mPGES-1 cDNA. […] The enzyme reactions are performed in 200 mM KPi pH 7.0, 2 mM EDTA and 2.5 mM GSH-reduced form. […] The reaction is terminated by the addition of SnCl2 in 1N HCl (1 mg/ml final).

SMILES | PGE2 formation [1] | cell proliferation [1] | IC50 (human mPGES-1) [nM]
CC(C)c1ccc2c(c1)c(SC(C)(C)C)c(CC(C)(C)C(=O)O)n2Cc1ccc(Cl)cc1 [MK-886] | inhibits | inhibits | 
CC(C)(O)c1ccc2c(c1)c1cc(Br)ccc1c1nc(-c3c(C#N)cccc3C#N)[nH]c21 [Example 87, 2-[6-bromo-9-(1-hydroxy-1-methylethyl)-1H-phenanthro[9,10-d]imidazol-2-yl]isophthalonitrile] |  |  | 1.9
CC(C)(O)c1ccc2c(c1)c1cc(C#CC3CC3)ccc1c1nc(-c3c(C#N)cccc3C#N)[nH]c21 [Example 88, 2-[6-(cyclopropylethynyl)-9-(1-hydroxy-1-methylethyl)-1H-phenanthro[9,10-d]imidazol-2-yl]isophthalonitrile] |  |  | 1.3
N#Cc1cccc(C#N)c1-c1nc2c3ccc(Br)cc3c3cc(Cl)ccc3c2[nH]1 [Example 36, 2-(6-bromo-9-chloro-1H-phenanthro[9,10-d]imidazol-2-yl)isophthalonitrile] |  |  | 1.2
CC(C)(O)C#Cc1ccc2c(c1)c1cc(Cl)ccc1c1[nH]c(-c3c(F)cccc3C#N)nc21 [Example 14, 2-[9-chloro-6-(3-hydroxy-3-methylbutyl-1-yn-1-yl)-1H-phenanthro[9,10-d]imidazol-2-yl]-3-fluorobenzonitrile] |  |  | 1.8
